We go through six cell lines from the supplement of paper PMC10307832.

Common to all, as to assay: relative viability (nuclei count vs DMSO), 5 days (fraction); higher = more cells survive
Compound in experiment [1]: C1=CC=C(C(=C1)C2=CC=C(C=C2)C3=CSC4=C3C(=C(C(=O)N4)C#N)O)O + CC(=O)c1c(C)c2cnc(Nc3ccc(N4CCNCC4)cn3)nc2n(C2CCCC2)c1=O [Palbociclib] (partner 0.5 µM)
The method, boiled down: (§1)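 Lung cancer cell lines were seeded in 1536-well plates and dosed by pin tool the next day, with either a single drug or a fixed anchor-drug dose combined with five library-drug doses (not always all listed) spaced in √10 steps. Five days later, one step fixed the cells and stained their nuclei (final 0.05% Triton X-100, 1% formaldehyde, 1 ug/ml Hoechst), and nuclei were counted on 4× images. Relative viability is the nuclei count in treated wells divided by the count in vehicle wells, and each value is the median of duplicate plates.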

Compound in experiment [2]: C1=CC=C(C(=C1)C2=CC=C(C=C2)C3=CSC4=C3C(=C(C(=O)N4)C#N)O)O + Cc1nc(Nc2ncc(C(=O)Nc3c(C)cccc3Cl)s2)cc(N2CCN(CCO)CC2)n1 [Dasatinib] (partner 0.075 µM)
Put shortly:
as §1

Compound in the experiment “TGX 221 + OSI-027”: CC1=CN2C(=O)C=C(N=C2C(=C1)C(C)NC3=CC=CC=C3)N4CCOCC4 [TGX 221] + COc1cccc2cc(-c3nc([C@H]4CC[C@H](C(=O)O)CC4)n4ncnc(N)c34)[nH]c12 [OSI-027] (partner 0.5 µM)
Put shortly:
as §1

Compound in the experiment “TGX 221 + AZD7762”: CC1=CN2C(=O)C=C(N=C2C(=C1)C(C)NC3=CC=CC=C3)N4CCOCC4 [TGX 221] + NC(=O)Nc1cc(-c2cccc(F)c2)sc1C(=O)N[C@H]1CCCNC1 [AZD7762] (partner 0.2 µM)
Put shortly: as §1

On to HOP-62, for which the relative viability in experiment [1] (first compound 0.08 µM) is 0.545; in experiment [1] (first compound 0.253 µM) it was 0.536; in experiment [1] (first compound 0.8 µM), 0.497; in experiment [1] (first compound 2.53 µM), 0.532; in experiment [1] (first compound 8 µM), 0.382; in experiment [2] (first compound 0.08 µM) it was 0.528. Moreover, the relative viability in experiment [2] (first compound 0.253 µM) turned out to be 0.573; in experiment [2] (first compound 0.8 µM), 0.685; in experiment [2] (first compound 2.53 µM) it was 0.67; in experiment [2] (first compound 8 µM), 0.501; with TGX 221 + OSI-027 (first compound 0.08 µM), 0.787; with TGX 221 + OSI-027 (first compound 0.253 µM), 0.812. The relative viability amounted to 0.788 with TGX 221 + OSI-027 (first compound 0.8 µM); 0.807 in the experiment with TGX 221 + OSI-027 (first compound 2.53 µM); 0.835 with TGX 221 + OSI-027 (first compound 8 µM); 0.424 in the experiment with TGX 221 + AZD7762 (first compound 0.08 µM); 0.545 with TGX 221 + AZD7762 (first compound 0.253 µM); 0.661 with TGX 221 + AZD7762 (first compound 0.8 µM). In addition, the relative viability was 0.788 with TGX 221 + AZD7762 (first compound 2.53 µM) and 0.641 with TGX 221 + AZD7762 (first compound 8 µM).
On to LCLC-103H, for which the relative viability in experiment [1] (first compound 0.08 µM) came out at 0.445; in experiment [1] (first compound 0.253 µM), 0.407; in experiment [1] (first compound 0.8 µM) it was 0.451; in experiment [1] (first compound 2.53 µM), 0.491; in experiment [1] (first compound 8 µM) it was 0.449; in experiment [2] (first compound 0.08 µM) it was 0.33. Moreover, the relative viability in experiment [2] (first compound 0.253 µM) came to 0.415; in experiment [2] (first compound 0.8 µM) it was 0.458; in experiment [2] (first compound 2.53 µM), 0.463; in experiment [2] (first compound 8 µM) it was 0.404; with TGX 221 + OSI-027 (first compound 0.08 µM) it was 0.425; with TGX 221 + OSI-027 (first compound 0.253 µM) it was 0.453. Further, the relative viability came out at 0.438 in the experiment with TGX 221 + OSI-027 (first compound 0.8 µM); 0.394 in the experiment with TGX 221 + OSI-027 (first compound 2.53 µM); 0.411 with TGX 221 + OSI-027 (first compound 8 µM); 0.789 with TGX 221 + AZD7762 (first compound 0.08 µM); 0.762 with TGX 221 + AZD7762 (first compound 0.253 µM); 0.771 with TGX 221 + AZD7762 (first compound 0.8 µM). Moreover, the values for the relative viability in the experiment with TGX 221 + AZD7762 (first compound 2.53 µM) and with TGX 221 + AZD7762 (first compound 8 µM) were 0.707 and 0.731, respectively.
With LU99A, the relative viability in experiment [1] (first compound 0.08 µM) came out at 0.389; in experiment [1] (first compound 0.253 µM), 0.371; in experiment [1] (first compound 0.8 µM), 0.44; in experiment [1] (first compound 2.53 µM), 0.469; in experiment [1] (first compound 8 µM), 0.392; in experiment [2] (first compound 0.08 µM), 0.528. In addition, the relative viability was 0.608 in experiment [2] (first compound 0.253 µM); 0.61 in experiment [2] (first compound 0.8 µM); 0.563 in experiment [2] (first compound 2.53 µM); 0.442 in experiment [2] (first compound 8 µM); 0.275 in the experiment with TGX 221 + OSI-027 (first compound 0.08 µM); 0.313 in the experiment with TGX 221 + OSI-027 (first compound 0.253 µM). The relative viability in the experiment with TGX 221 + OSI-027 (first compound 0.8 µM) was determined as 0.328; with TGX 221 + OSI-027 (first compound 2.53 µM), 0.346; with TGX 221 + OSI-027 (first compound 8 µM), 0.293; with TGX 221 + AZD7762 (first compound 0.08 µM) it was 0.263; with TGX 221 + AZD7762 (first compound 0.253 µM), 0.387; with TGX 221 + AZD7762 (first compound 0.8 µM) it was 0.391. For the same cell line, the results for the relative viability in the experiment with TGX 221 + AZD7762 (first compound 2.53 µM) and with TGX 221 + AZD7762 (first compound 8 µM) were 0.402 and 0.305, respectively.
With NCI-H2405, the relative viability in experiment [1] (first compound 0.08 µM) came to 0.476; in experiment [1] (first compound 0.8 µM), 0.516; in experiment [1] (first compound 2.53 µM), 0.513; in experiment [1] (first compound 8 µM), 0.531; in experiment [2] (first compound 0.08 µM) it was 0.206; in experiment [2] (first compound 0.253 µM), 0.206. Further, the relative viability in experiment [2] (first compound 0.8 µM) came out at 0.214; in experiment [2] (first compound 2.53 µM), 0.201; in experiment [2] (first compound 8 µM), 0.201; in the experiment with TGX 221 + OSI-027 (first compound 0.08 µM), 0.609; with TGX 221 + OSI-027 (first compound 0.253 µM), 0.627; with TGX 221 + OSI-027 (first compound 0.8 µM), 0.664. Moreover, the relative viability with TGX 221 + OSI-027 (first compound 2.53 µM) worked out at 0.658; with TGX 221 + OSI-027 (first compound 8 µM), 0.589; in the experiment with TGX 221 + AZD7762 (first compound 0.08 µM), 0.706; with TGX 221 + AZD7762 (first compound 0.253 µM), 0.665; in the experiment with TGX 221 + AZD7762 (first compound 0.8 µM), 0.724; in the experiment with TGX 221 + AZD7762 (first compound 2.53 µM), 0.665. Also, the relative viability with TGX 221 + AZD7762 (first compound 8 µM) came to 0.547.
Turning to PC-14, the relative viability in experiment [1] (first compound 0.08 µM) came to 0.496; in experiment [1] (first compound 0.253 µM), 0.56; in experiment [1] (first compound 0.8 µM) it was 0.537; in experiment [1] (first compound 2.53 µM), 0.574; in experiment [1] (first compound 8 µM), 0.34; in experiment [2] (first compound 0.08 µM), 0.244. For the same cell line, the relative viability was found to be 0.261 in experiment [2] (first compound 0.253 µM); 0.272 in experiment [2] (first compound 0.8 µM); 0.27 in experiment [2] (first compound 2.53 µM); 0.239 in experiment [2] (first compound 8 µM); 0.707 in the experiment with TGX 221 + OSI-027 (first compound 0.08 µM); 0.791 with TGX 221 + OSI-027 (first compound 0.253 µM). The relative viability with TGX 221 + OSI-027 (first compound 0.8 µM) came to 0.908; in the experiment with TGX 221 + OSI-027 (first compound 2.53 µM), 1.05; with TGX 221 + OSI-027 (first compound 8 µM) it was 0.654; with TGX 221 + AZD7762 (first compound 0.08 µM), 0.316; with TGX 221 + AZD7762 (first compound 0.253 µM), 0.329; in the experiment with TGX 221 + AZD7762 (first compound 0.8 µM) it was 0.34. Further, the figures for the relative viability in the experiment with TGX 221 + AZD7762 (first compound 2.53 µM) and with TGX 221 + AZD7762 (first compound 8 µM) were 0.33 and 0.289, respectively.
As for NCI-H1666, the relative viability in experiment [1] (first compound 0.08 µM) turned out to be 0.63; in experiment [1] (first compound 0.253 µM), 0.669; in experiment [1] (first compound 0.8 µM), 0.637; in experiment [1] (first compound 2.53 µM), 0.641; in experiment [1] (first compound 8 µM), 1.02; in experiment [2] (first compound 0.08 µM), 0.6. The relative viability in experiment [2] (first compound 0.253 µM) was found to be 0.858; in experiment [2] (first compound 0.8 µM) it was 0.987; in experiment [2] (first compound 2.53 µM) it was 0.903; in experiment [2] (first compound 8 µM), 0.722; with TGX 221 + OSI-027 (first compound 0.08 µM), 0.836; in the experiment with TGX 221 + OSI-027 (first compound 0.253 µM), 0.81. Further, the relative viability in the experiment with TGX 221 + OSI-027 (first compound 0.8 µM) amounted to 0.831; with TGX 221 + OSI-027 (first compound 2.53 µM), 0.819; with TGX 221 + OSI-027 (first compound 8 µM), 0.887; in the experiment with TGX 221 + AZD7762 (first compound 0.08 µM), 0.784; with TGX 221 + AZD7762 (first compound 0.253 µM) it was 0.861; with TGX 221 + AZD7762 (first compound 0.8 µM), 0.923. Also, the results for the relative viability with TGX 221 + AZD7762 (first compound 2.53 µM) and with TGX 221 + AZD7762 (first compound 8 µM) were 0.8 and 0.802, respectively.
